{"source": "EPA's ToxValDB 9.5 (doi:10.2903/j.efsa.2006.65r)", "key": {"Pontoscolex corethrurus": {"system": "Pontoscolex corethrurus", "settings": "acute; mortality"}, "Bibionidae": {"system": "Bibionidae", "settings": "chronic/long-term"}, "Neomysis kadiakensis": {"system": "Neomysis kadiakensis", "settings": "chronic/long-term; duration: 28 days"}, "Daphnia magna": {"system": "Daphnia magna", "settings": "chronic/long-term; duration: 21 days"}, "Lepomis macrochirus": {"system": "Lepomis macrochirus", "settings": "acute, duration: 96 hours"}, "Canidae": {"system": "Canidae", "settings": "oral, Dog Other, clinical signs"}, "Apis mellifera": {"system": "Apis mellifera", "settings": "acute, mortality"}, "Aphidius rhopalosiphi": {"system": "Aphidius rhopalosiphi", "experiment": "LR50; higher = less toxic", "settings": "not reported; mortality"}, "[1]": {"settings": "short-term, duration: 5 days, oral, diet, food consumption"}}, "note": "Values joined by “and” are separate entries in the source; they are usually repeats but may differ in a detail not shown here. Identical values can stand only once.", "data": [{"molecule": "N#Cc1nn(-c2c(Cl)cc(C(F)(F)F)cc2Cl)c(N)c1C(F)(F)F", "note": "[Fipronil desulfinyl]", "values": [{"measurement": "NOEL", "setting": "Colinus virginianus; [1]", "result": 7.12, "unit": "mg/kg-day"}]}, {"molecule": "N#Cc1nn(-c2c(Cl)cc(C(F)(F)F)cc2Cl)c(N)c1SC(F)(F)F", "note": "[Fipronil sulfide]", "values": [{"measurement": "LC50", "setting": "Pontoscolex corethrurus", "result": "> 1000", "unit": "mg/kg"}, {"measurement": "NOEC", "setting": "Bibionidae; duration: 28 days", "result": "0.000117 mg/L and 0.000193 mg/kg"}, {"measurement": "NOEL", "setting": "Colinus virginianus; [1]", "result": 6.98, "unit": "mg/kg-day"}, {"measurement": "LC50", "setting": "Oncorhynchus mykiss; acute, duration: 96 hours, mortality", "result": 0.0295, "unit": "µg/mL"}, {"measurement": "NOEC", "setting": "Neomysis kadiakensis", "result": "4.6e-06", "unit": "mg/L"}, {"measurement": "NOEC", "setting": "Daphnia magna", "result": 0.013, "unit": "mg/L"}]}, {"molecule": "N#Cc1nn(-c2c(Cl)cc(C(F)(F)F)cc2Cl)c(N)c1S(=O)(=O)C(F)(F)F", "note": "[Fipronil sulfone]", "values": [{"measurement": "LC50", "setting": "Pontoscolex corethrurus", "result": "> 1000", "unit": "mg/kg"}, {"measurement": "LC50", "setting": "Lepomis macrochirus", "result": 0.025, "unit": "µg/mL"}, {"measurement": "NOEC", "setting": "Bibionidae", "result": "6.9e-05", "unit": "mg/L"}, {"measurement": "NOEC", "setting": "Bibionidae; duration: 28 days", "result": 0.000165, "unit": "mg/kg"}, {"measurement": "NOEL", "setting": "Colinus virginianus; [1]", "result": 7.83, "unit": "mg/kg-day"}]}, {"molecule": "N#Cc1nn(-c2c(Cl)cc(C(F)(F)F)cc2Cl)c(N)c1S(=O)C(F)(F)F", "note": "(centres undefined) [Fipronil]", "values": [{"measurement": "NOAEL", "setting": "Canidae; chronic, duration: 1 years", "result": 0.35, "unit": "mg/kg-day"}, {"measurement": "NOAEL", "setting": "Canidae; subchronic, duration: 90 days", "result": 0.35, "unit": "mg/kg-day"}, {"measurement": "LC50", "setting": "Cyprinodon variegatus; acute, duration: 96 hours", "result": 0.13, "unit": "µg/mL"}, {"measurement": "NOEC", "setting": "Cyprinodon variegatus; chronic/long-term, duration: 138 days", "result": 0.006, "unit": "mg/L"}, {"measurement": "LC50", "setting": "Lepomis macrochirus; mortality", "result": 0.0852, "unit": "µg/mL"}, {"measurement": "NOEC", "setting": "Bibionidae", "result": 0.000193, "unit": "mg/kg"}, {"measurement": "NOEC", "setting": "Bibionidae; duration: 28 days", "result": 0.000117, "unit": "mg/L"}, {"measurement": "LD50", "setting": "Rattus norvegicus; acute, oral, M, mortality", "result": 92, "unit": "mg/kg"}, {"measurement": "NOAEL", "setting": "Rattus norvegicus; chronic, duration: 2 years, clinical signs", "result": 0.02, "unit": "mg/kg-day"}, {"measurement": "NOAEL", "setting": "Rattus norvegicus; developmental, development", "result": 0.9, "unit": "mg/kg-day"}, {"measurement": "NOEL", "setting": "Rattus norvegicus; reproduction developmental, M, reproduction", "result": 2.53, "unit": "mg/kg-day"}, {"measurement": "NOAEL", "setting": "Rattus norvegicus; subchronic, duration: 90 days, oral, clinical signs", "result": 0.35, "unit": "mg/kg-day"}, {"measurement": "LD50", "setting": "Colinus virginianus; acute, oral, mortality", "result": 11.3, "unit": "mg/kg"}, {"measurement": "NOEL", "setting": "Colinus virginianus; reproduction developmental", "result": 0.88, "unit": "mg/kg-day"}, {"measurement": "NOEL", "setting": "Colinus virginianus; [1]", "result": 3.77, "unit": "mg/kg-day"}, {"measurement": "NOEC", "setting": "Oncorhynchus mykiss; chronic/long-term, duration: 90 days", "result": 0.015, "unit": "mg/L"}, {"measurement": "LD50", "setting": "Apis mellifera; dermal", "result": 0.00593, "unit": "µg/piece"}, {"measurement": "LD50", "setting": "Apis mellifera; oral, unspecified", "result": 0.00417, "unit": "µg/piece"}, {"measurement": "LC50", "setting": "Tagia sp.; acute, mortality", "result": "> 1000", "unit": "mg/kg"}, {"measurement": "NOEC", "setting": "Tagia sp.; chronic/long-term", "result": 1000, "unit": "mg/kg"}, {"measurement": "NOEC", "setting": "Daphnia magna", "result": 0.0098, "unit": "mg/L"}, {"measurement": "LR50", "setting": "Aphidius rhopalosiphi", "result": 0.01, "unit": "g/ha"}]}]}
